# In US20200352905A1, “6-(2,4-DICHLOROPHENYL)-5-[4-[(3S)-1-(3-FLUOROPROPYL)PYRROLIDIN-3-YL]OXYPHENYL]-8,9-DIHYDRO-7H-BENZO[7]ANNULENE-2-CARBOXYLIC ACID FOR USE IN METASTATIC OR ADVANCED BREAST CANCER PATIENTS” (SANOFI, priority 2019, published 2020):
# Values joined by “and” are separate entries in the source; they are usually repeats but may differ in a detail not shown here. Equal values may be shown once. Read-outs that look alike come from different tables or passages of the source.
# Test: TED14856 Part A: plasma pharmacokinetics of compound (1)
# Type: in vivo, human
# Details: for AUC(0-t) / Cmax / Vd/F / Tmax: human, plasma, oral; for Tmax: read-out: tmax (median)
# [1] = repeated 20 mg once daily, Cycle1 Day 22, fasted, N=3
# [2] = repeated 150 mg once daily, Cycle1 Day 22, fasted, N=2
# [3] = repeated 200 mg once daily, Cycle1 Day 22, fasted, N=3
# [4] = repeated 400 mg once daily, Cycle1 Day 22, fasted, N=3
# [5] = repeated 600 mg once daily, Cycle1 Day 22, fasted, N=3
# [6] = single 20 mg, Cycle1 Day 1, fasted, N = 1
# [7] = single 150 mg, Cycle1 Day 1, fasted, N = 1
# [8] = single 200 mg, Cycle1 Day 1, fasted, N=4
# [9] = single 400 mg, Cycle1 Day 1, fasted, N=3
# [10] = single 600 mg, Cycle1 Day 1, fasted, N = 2
smiles,measurement,setting,value
"O=C(O)c1ccc2c(c1)CCCC(c1ccc(Cl)cc1Cl)=C2c1ccc(O[C@H]2CCN(CCCF)C2)cc1 [compound (1), 6-(2,4-dichlorophenyl)-5-[4-[(3S)-1-(3-fluoropropyl)pyrrolidin-3-yl]oxyphenyl]-8,9-dihydro-7H-benzo[7]annulene-2-carboxylic acid]",AUC(0-t),"400 mg, single 400 mg, Cycle1 Day 1, fasted, N=3, read-out: AUC0-24 (Geometric Mean)",37600 ng·h/mL
same,AUC(0-t),"400 mg, single 400 mg, Cycle1 Day 1, fasted, N=3, read-out: AUC0-24 (Mean ± SD)",40400 ± 17500 ng·h/mL
same,Cmax,"400 mg, single 400 mg, Cycle1 Day 1, fasted, N=3, read-out: Cmax (Geometric Mean)",4120 ng/mL
same,Vd/F,"400 mg, single 400 mg, Cycle1 Day 1, fasted, N=3, read-out: Vss/F (Geometric Mean)",112 L
same,Vd/F,"400 mg, single 400 mg, Cycle1 Day 1, fasted, N=3, read-out: Vss/F (Mean ± SD)",117 ± 40.6 L
same,Tmax,"400 mg, single 400 mg, Cycle1 Day 1, fasted, N=3",3 h
same,AUC(0-t),"600 mg, repeated 600 mg once daily, Cycle1 Day 22, fasted, N=3, read-out: AUC0-24 (Geometric Mean)",41700 ng·h/mL
same,AUC(0-t),"600 mg, repeated 600 mg once daily, Cycle1 Day 22, fasted, N=3, read-out: AUC0-24 (Mean ± SD)",42700 ± 11200 ng·h/mL
same,Cmax,"600 mg, repeated 600 mg once daily, Cycle1 Day 22, fasted, N=3, read-out: Cmax (Geometric Mean)",5510 ng/mL
same,Cmax,"600 mg, repeated 600 mg once daily, Cycle1 Day 22, fasted, N=3, read-out: Cmax (Mean ± SD)",5570 ± 962 ng/mL
same,Tmax,"600 mg, repeated 600 mg once daily, Cycle1 Day 22, fasted, N=3",3 h
same,Vd/F,"600 mg, single 600 mg, Cycle1 Day 1, fasted, N = 2, read-out: Vss/F (Geometric Mean)",132 L
same,Vd/F,"600 mg, single 600 mg, Cycle1 Day 1, fasted, N = 2, read-out: Vss/F (Mean ± SD)",137 L
same,AUC(0-t),"600 mg, single 600 mg, Cycle1 Day 1, fasted, N=3, read-out: AUC0-24 (Geometric Mean)",53400 ng·h/mL
same,AUC(0-t),"600 mg, single 600 mg, Cycle1 Day 1, fasted, N=3, read-out: AUC0-24 (Mean ± SD)",61100 ± 36300 ng·h/mL
same,Cmax,"600 mg, single 600 mg, Cycle1 Day 1, fasted, N=3, read-out: Cmax (Geometric Mean)",6160 ng/mL
same,Cmax,"600 mg, single 600 mg, Cycle1 Day 1, fasted, N=3, read-out: Cmax (Mean ± SD)",7010 ± 4180 ng/mL
same,Tmax,"600 mg, single 600 mg, Cycle1 Day 1, fasted, N=3",3.03 h
same,accumulation on Day 21/22,once-daily administrations up to 200 mg,moderate accumulation
same,accumulation on Day 21/22,"once-daily, doses higher than 200 mg",no accumulation
same,CLss/F (Mean ± SD),[1],18.0 ± 13.7 L/h
same,Ctrough (Mean ± SD),[1],8.10 ± 7.16 ng/mL
same,CLss/F (Mean ± SD),[2],10.6 NC L/hr
same,Ctrough (Geometric Mean),[2],(115) [NC] ng/mL
same,Ctrough (Mean ± SD),[2],126 NC ng/mL
same,CLss/F (Mean ± SD),[3],15.3 ± 4.30 L/h
same,Ctrough (Geometric Mean),[3],(59.2) [73.6] ng/mL
same,Ctrough (Mean ± SD),[3],76.1 ± 56.0 ng/mL
same,CLss/F (Mean ± SD),[4],18.1 ± 17.4 L/h
same,Ctrough (Geometric Mean),[4],(253) [84.2] ng/mL
same,Ctrough (Mean ± SD),[4],388 ng/mL and 388 ± 327 ng/mL
same,CLss/F (Mean ± SD),[5],14.7 ± 3.96 L/h
same,Ctrough (Geometric Mean),[5],(314) [56.8] ng/mL
same,Ctrough (Mean ± SD),[5],348 ± 197 ng/mL
same,CL/F (Mean ± SD),[6],12.2 NC L/hr
same,t1/2z (Geometric Mean),[6],(4.86) [NC]^b hr
same,t1/2z (Mean ± SD),[6],4.86 NC hr
same,CL/F (Mean ± SD),[7],7.26 NC L/hr
same,t1/2z (Geometric Mean),[7],(6.42) [NC]^b hr
same,t1/2z (Mean ± SD),[7],6.42 NC hr
same,CL/F (Mean ± SD),[8],24.2 ± 17.0 L/h
same,t1/2z (Geometric Mean),[8],(7.31) [19.5] hr
same,t1/2z (Mean ± SD),[8],7.41 ± 1.45 h
same,CL/F (Mean ± SD),[9],9.86 ± 5.77 L/h
same,t1/2z (Mean ± SD),[9],10.6 ± 2.33 h
same,CL/F (Mean ± SD),[10],15.2 NC L/hr
same,t1/2z (Geometric Mean),[10],(8.97) [NC]^c hr
same,t1/2z (Mean ± SD),[10],9.45 NC hr
same,accumulation after repeated oral administration,up to 600 mg,limited accumulation
same,"dose proportionality of exposure (Cmax, AUC0-24h)","up to 600 mg, single or multiple once daily administrations",did not deviate significantly from dose proportionality
